Results from patent US20210045385A1, “PYRIDAZINONE-SUBSTITUTED KETOXIMES AS HERBICIDES” (FMC Corporation, priority 2018, published 2021).

What was measured:
Format in all cases: in vivo
[1] = tested on: Italian ryegrass (Lolium multiflorum); assay: Test A preemergence, visual plant response rating; conditions: for Ryegrass, Italian plant response rating: preemergence, 0 to 100 scale, 0 no effect, 100 complete control; for Ryegrass, Italian plant response rating (0 to 100 scale): approx. 10 days
In short: (§1)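 Preemergence: seeds in loam/sand blend given directed soil spray of compound in non-phytotoxic solvent with surfactant. Postemergence: plants 2–10 cm, one- to two-leaf stage, sprayed with same formulation. Visual injury rated vs untreated controls after ~10 days in greenhouse, 0 (no effect) to 100 (complete control).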

[2] = tested on: barnyardgrass (Echinochloa crus-galli); assay: Test A preemergence, visual plant response rating; conditions: for Barnyardgrass plant response rating: preemergence, 0 to 100 scale, 0 no effect, 100 complete control; for Barnyardgrass plant response rating (0 to 100 scale): approx. 10 days
In short: as §1

[3] = tested on: foxtail, giant (giant foxtail, Setaria faberii); assay: Test A preemergence, visual plant response rating; conditions: for Foxtail, Giant plant response rating: preemergence, 0 to 100 scale, 0 no effect, 100 complete control; for Foxtail, Giant plant response rating (0 to 100 scale): approx. 10 days
In short: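 Ratings use a 0–100 visual scale (100 = complete control) against untreated controls, scored about 10 days after greenhouse treatment. Test chemicals were formulated in surfactant-containing non-phytotoxic solvent and applied either as soil spray after planting (preemergence) or onto one- to two-leaf, 2–10 cm plants (postemergence).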

kochia (Kochia scoparia) [4] = assay: Test A preemergence, visual plant response rating; conditions: for Kochia plant response rating: preemergence, 0 to 100 scale, 0 no effect, 100 complete control; for Kochia plant response rating (0 to 100 scale): approx. 10 days
In short: as §1

[5] = tested on: pigweed (Amaranthus retroflexus); assay: Test A preemergence, visual plant response rating; conditions: for Pigweed plant response rating: preemergence, 0 to 100 scale, 0 no effect, 100 complete control; for Pigweed plant response rating (0 to 100 scale): approx. 10 days
In short: as §1

[6] = tested on: ragweed (common ragweed, Ambrosia elatior); assay: Test A preemergence, visual plant response rating; conditions: for Ragweed plant response rating: preemergence, 0 to 100 scale, 0 no effect, 100 complete control; for Ragweed plant response rating (0 to 100 scale): approx. 10 days
In short: as §1

[7] = tested on: Italian ryegrass (Lolium multiflorum); assay: Test A postemergence, visual plant response rating; conditions: for Ryegrass, Italian plant response rating: Postemergence, 125 g ai/ha, 0 to 100 scale (0 no effect, 100 complete control)
In short: as §1

[8] = tested on: barnyardgrass (Echinochloa crus-galli); assay: Test A postemergence, visual plant response rating; conditions: for Barnyardgrass plant response rating: Postemergence, 125 g ai/ha, 0 to 100 scale (0 no effect, 100 complete control)
In short: as §1

[9] = tested on: blackgrass (Alopecurus myosuroides); assay: Test A postemergence, visual plant response rating; conditions: for Blackgrass plant response rating: Postemergence, 125 g ai/ha, 0 to 100 scale (0 no effect, 100 complete control)
In short: as §1

corn (Zea mays) = assay: Test A postemergence, visual plant response rating; conditions: for Corn plant response rating: Postemergence, 125 g ai/ha, 0 to 100 scale (0 no effect, 100 complete control)
In short: as §1

[10] = tested on: foxtail, giant (giant foxtail, Setaria faberii); assay: Test A postemergence, visual plant response rating; conditions: for Foxtail, Giant plant response rating: Postemergence, 125 g ai/ha, 0 to 100 scale (0 no effect, 100 complete control)
In short: as §1

[11] = tested on: galium (catchweed bedstraw, Galium aparine); assay: Test A postemergence, visual plant response rating; conditions: for Galium plant response rating: Postemergence, 125 g ai/ha, 0 to 100 scale (0 no effect, 100 complete control)
In short: as §1

kochia (Kochia scoparia) [12] = assay: Test A postemergence, visual plant response rating; conditions: for Kochia plant response rating: Postemergence, 125 g ai/ha, 0 to 100 scale (0 no effect, 100 complete control)
In short: as §1

[13] = tested on: pigweed (Amaranthus retroflexus); assay: Test A postemergence, visual plant response rating; conditions: for Pigweed plant response rating: Postemergence, 125 g ai/ha, 0 to 100 scale (0 no effect, 100 complete control)
In short: as §1

[14] = tested on: ragweed (common ragweed, Ambrosia elatior); assay: Test A postemergence, visual plant response rating; conditions: for Ragweed plant response rating: Postemergence, 125 g ai/ha, 0 to 100 scale (0 no effect, 100 complete control)
In short: as §1

[15] = tested on: wheat (Triticum aestivum); assay: Test A postemergence, visual plant response rating; conditions: for Wheat plant response rating: Postemergence, 125 g ai/ha, 0 to 100 scale (0 no effect, 100 complete control)
In short: as §1

[16] = tested on: barnyardgrass (Echinochloa crus-galli); assay: Test B flooded paddy test, visual plant response rating; conditions: 250 g ai/ha, Flood, applied to paddy water, 2-leaf stage, evaluated after 13 to 15 days
In short: (§2)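 Test pots are flooded 3 cm above the soil at treatment, and the test substance is introduced into this standing water. After keeping the flood level and growing plants, treated at the 2-leaf stage, for 13 to 15 days under glass, injury is assessed visually versus controls.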

[17] = tested on: ducksalad (Heteranhera limosa); assay: as above; conditions: 250 g ai/ha, Flood, applied to paddy water, 2-leaf stage, evaluated after 13 to 15 days
In short: as §2

rice (Oryza sativa) = assay: as above; conditions: 250 g ai/ha, Flood, applied to paddy water, 2-leaf stage, evaluated after 13 to 15 days
In short: as §2

[18] = tested on: sedge, umbrella (small-flower umbrella sedge, Cyperus difformis); assay: as above; conditions: 250 g ai/ha, Flood, applied to paddy water, 2-leaf stage, evaluated after 13 to 15 days
In short: as §2

[19] = 1000 g ai/ha Postemergence, approx. 10 days
[20] = 500 g ai/ha, postemergence, 0 is no effect, 100 is complete control

Row | SMILES | Plant response rating, Barnyardgrass (0 to 100 scale, 0 is no effect, 100 is complete control) [16] | Plant response rating, Ducksalad (0 to 100 scale, 0 is no effect, 100 is complete control) [17] | Plant response rating, Rice (0 to 100 scale, 0 is no effect, 100 is complete control) (rice (Oryza sativa)) | Plant response rating, Sedge, Umbrella (0 to 100 scale, 0 is no effect, 100 is complete control) [18] | Ryegrass, Italian plant response rating (0 to 100 scale) ([1]; 500 g ai/ha Preemergence) | Barnyardgrass plant response rating (0 to 100 scale) ([2]; 500 g ai/ha Preemergence) | Foxtail, Giant plant response rating (0 to 100 scale) ([3]; 500 g ai/ha Preemergence) | Kochia plant response rating (0 to 100 scale) (kochia (Kochia scoparia) [4]; 500 g ai/ha Preemergence) | Pigweed plant response rating (0 to 100 scale) ([5]; 500 g ai/ha Preemergence) | Ragweed plant response rating (0 to 100 scale) ([6]; 500 g ai/ha Preemergence) | Ryegrass, Italian plant response rating (0 to 100 scale) [7, 20] | Ryegrass, Italian plant response rating [7] | Barnyardgrass plant response rating (0 to 100 scale) [8, 20] | Barnyardgrass plant response rating [8] | Blackgrass plant response rating (0 to 100 scale) [9, 20] | Blackgrass plant response rating [9] | Corn plant response rating (0 to 100 scale) (corn (Zea mays); [20]) | Corn plant response rating (corn (Zea mays)) | Foxtail, Giant plant response rating (0 to 100 scale) [10, 20] | Foxtail, Giant plant response rating [10] | other results
1 | Cc1cccc(/C(=N/OC(C)C)c2c(O)c(C)nn(C)c2=O)c1 [Compound 18] | 0 | 0 | 0 | 0 | – | – | – | – | – | – | – | – | – | – | – | – | – | – | – | – | Ryegrass, Italian plant response rating ([1]; 1000 g ai/ha): 60; Barnyardgrass plant response rating ([2]; 1000 g ai/ha): 30; Foxtail, Giant plant response rating ([3]; 1000 g ai/ha): 20; Kochia plant response rating (kochia (Kochia scoparia) [4]; 1000 g ai/ha): 50; Pigweed plant response rating ([5]; 1000 g ai/ha): 100; Ragweed plant response rating ([6]; 1000 g ai/ha): 80; Ryegrass, Italian plant response rating (0 to 100 scale) [7, 19]: 60; Barnyardgrass plant response rating (0 to 100 scale) [8, 19]: 10; Blackgrass plant response rating (0 to 100 scale) [9, 19]: 10; Corn plant response rating (0 to 100 scale) (corn (Zea mays); [19]): 0; Foxtail, Giant plant response rating (0 to 100 scale) [10, 19]: 40; Galium plant response rating (0 to 100 scale) [11, 19]: 90; Kochia plant response rating (0 to 100 scale) (kochia (Kochia scoparia) [12]; [19]): 30; Pigweed plant response rating (0 to 100 scale) [13, 19]: 90; Ragweed plant response rating (0 to 100 scale) [14, 19]: 100; Wheat plant response rating (0 to 100 scale) [15, 19]: 20
2 | CO/N=C(/c1cccc(F)c1)c1c(O)c(C)nn(C)c1=O [Compound 32] | 0 | 0 | 0 | 0 | 50 | 0 | 0 | 10 | 50 | 40 | 60 | 40 | 20 | 10 | 20 | 0 | 0 | 0 | 20 | 10 | Ryegrass, Italian plant response rating (0 to 100 scale) ([1]; 125 g ai/ha Preemergence): 20; Barnyardgrass plant response rating (0 to 100 scale) ([2]; 125 g ai/ha Preemergence): 0; Foxtail, Giant plant response rating (0 to 100 scale) ([3]; 125 g ai/ha Preemergence): 0; Kochia plant response rating (0 to 100 scale) (kochia (Kochia scoparia) [4]; 125 g ai/ha Preemergence): 0; Pigweed plant response rating (0 to 100 scale) ([5]; 125 g ai/ha Preemergence): 0; Ragweed plant response rating (0 to 100 scale) ([6]; 125 g ai/ha Preemergence): 20; Galium plant response rating (0 to 100 scale) [11, 20]: 80; Galium plant response rating [11]: 70; Kochia plant response rating (0 to 100 scale) (kochia (Kochia scoparia) [12]; [20]): 70; Kochia plant response rating (kochia (Kochia scoparia) [12]): 20; Pigweed plant response rating (0 to 100 scale) [13, 20]: 40; Pigweed plant response rating [13]: 40; Ragweed plant response rating (0 to 100 scale) [14, 20]: 80; Ragweed plant response rating [14]: 50; Wheat plant response rating (0 to 100 scale) [15, 20]: 10; Wheat plant response rating [15]: 0
3 | CO/N=C(/c1ccccc1F)c1c(O)c(C)nn(C)c1=O [Compound 34] | 0 | 0 | 0 | 0 | 60 | 0 | 40 | 0 | 10 | 50 | 60 | 20 | 20 | 0 | 10 | 0 | 0 | 0 | 10 | 0 | Ryegrass, Italian plant response rating ([1]; 125 g ai/ha): 10; Barnyardgrass plant response rating ([2]; 125 g ai/ha): 0; Foxtail, Giant plant response rating ([3]; 125 g ai/ha): 0; Kochia plant response rating (kochia (Kochia scoparia) [4]; 125 g ai/ha): 0; Pigweed plant response rating ([5]; 125 g ai/ha): 0; Ragweed plant response rating ([6]; 125 g ai/ha): 20; Galium plant response rating (0 to 100 scale) [11, 20]: 70; Galium plant response rating [11]: 40; Kochia plant response rating (0 to 100 scale) (kochia (Kochia scoparia) [12]; [20]): 20; Kochia plant response rating (kochia (Kochia scoparia) [12]): 10; Pigweed plant response rating (0 to 100 scale) [13, 20]: 20; Pigweed plant response rating [13]: 20; Ragweed plant response rating (0 to 100 scale) [14, 20]: 50; Ragweed plant response rating [14]: 40; Wheat plant response rating (0 to 100 scale) [15, 20]: 20; Wheat plant response rating [15]: 20
4 | Cc1ccc(Cl)cc1/C(=N\O)c1c(O)c(C)nn(C)c1=O [Compound 35] | 0 | 0 | 0 | 0 | 10 | 0 | 0 | 0 | 0 | 10 | 20 | 0 | 0 | 0 | 20 | 0 | 0 | 0 | 0 | 0 | Ryegrass, Italian plant response rating ([1]; 125 g ai/ha): 0; Barnyardgrass plant response rating ([2]; 125 g ai/ha): 0; Foxtail, Giant plant response rating ([3]; 125 g ai/ha): 0; Kochia plant response rating (kochia (Kochia scoparia) [4]; 125 g ai/ha): 0; Pigweed plant response rating ([5]; 125 g ai/ha): 0; Ragweed plant response rating ([6]; 125 g ai/ha): 0; Galium plant response rating (0 to 100 scale) [11, 20]: 70; Galium plant response rating [11]: 20; Kochia plant response rating (0 to 100 scale) (kochia (Kochia scoparia) [12]; [20]): 10; Kochia plant response rating (kochia (Kochia scoparia) [12]): 0; Pigweed plant response rating (0 to 100 scale) [13, 20]: 20; Pigweed plant response rating [13]: 10; Ragweed plant response rating (0 to 100 scale) [14, 20]: 20; Ragweed plant response rating [14]: 10; Wheat plant response rating (0 to 100 scale) [15, 20]: 0; Wheat plant response rating [15]: 0
5 | CCc1cccc(C(=NOC)c2c(O)c(C)nn(C)c2=O)c1 [Compound 36] | 0 | 0 | 0 | 0 | 50 | 20 | 50 | 50 | 30 | 70 | 50 | 30 | 0 | 0 | 20 | 10 | 0 | 20 | 10 | 0 | Ryegrass, Italian plant response rating ([1]; 125 g ai/ha): 30; Barnyardgrass plant response rating ([2]; 125 g ai/ha): 10; Foxtail, Giant plant response rating ([3]; 125 g ai/ha): 0; Kochia plant response rating (kochia (Kochia scoparia) [4]; 125 g ai/ha): 10; Pigweed plant response rating ([5]; 125 g ai/ha): 10; Ragweed plant response rating ([6]; 125 g ai/ha): 10; Galium plant response rating (0 to 100 scale) [11, 20]: 70; Galium plant response rating [11]: 50; Kochia plant response rating (0 to 100 scale) (kochia (Kochia scoparia) [12]; [20]): 70; Kochia plant response rating (kochia (Kochia scoparia) [12]): 60; Pigweed plant response rating (0 to 100 scale) [13, 20]: 70; Pigweed plant response rating [13]: 20; Ragweed plant response rating (0 to 100 scale) [14, 20]: 80; Ragweed plant response rating [14]: 70; Wheat plant response rating (0 to 100 scale) [15, 20]: 0; Wheat plant response rating [15]: 0
